Test results: ChEMBL document CHEMBL3044778, “Lethal and sublethal effects of buprofezin and imidacloprid on the whitefly parasitoid Encarsia inaron (Hymenoptera: Aphelinidae)” (2012)
In brackets after ≈: the same amount, converted by molar mass. Activity calls are given as the source filed them. The calls are words filed in the database; no cut-off is given here.

Key:
Encarsia inaron [1] = assay: Insecticidal activity against Encarsia inaron treated at larval stages at 31.25 ppm assessed as insect longevity (reference value: 5.60 days); assay type: functional, Larval stage
Encarsia inaron [2] = assay: Insecticidal activity against Encarsia inaron treated at larval stages assessed as finite rate of increase at 31.25 ppm; assay type: functional, organism-based; conditions: Larval stage
Encarsia inaron [3] = assay: Insecticidal activity against Encarsia inaron treated at pupal stages assessed as finite rate increase at 2000 ppm; assay type: functional, organism-based; conditions: Pupal stage
Encarsia inaron [4] = assay: Insecticidal activity against Encarsia inaron treated at pupal stages at 2000 ppm assessed as insect longevity (reference value: 8.7 days); assay type: functional, Pupal stage
Encarsia inaron [5] = assay: Insecticidal activity against Encarsia inaron treated at adult stages at 2000 ppm assessed as insects eggs level per day (reference value: 2.33 egg/day); assay type: functional
Encarsia inaron [6] = assay: Insecticidal activity against Encarsia inaron treated at adult stages assessed as intrinsic rate of increase at 2000 ppm; assay type: functional, organism-based
Encarsia inaron [7] = assay: Insecticidal activity against Encarsia inaron treated at pupal stages at 2000 ppm assessed as sex ratio (reference value: 0.68 no unit); assay type: functional, Pupal stage
Encarsia inaron [8] = assay: Insecticidal activity against Encarsia inaron treated at pupal stages assessed as mean generation time at 2000 ppm; assay type: functional, organism-based; conditions: Pupal stage
Encarsia inaron [9] = assay: Insecticidal activity against Encarsia inaron treated at adult stages assessed as increase in net reproductive rate at 2000 ppm; assay type: functional, organism-based
Encarsia inaron [10] = assay: Insecticidal activity against Encarsia inaron infested cucumber plants assessed as adult parasitoid emergence from parasitised host nymphs treated at larval stages at 400 g ai/L SC measured 10 days post compound treatment (reference value: 79.60 %); assay type: functional, Larval stage
Encarsia inaron [11] = assay: Insecticidal activity against Encarsia inaron treated at adult stages at 2000 ppm assessed as sex ratio (reference value: 0.72 no unit); assay type: functional
Encarsia inaron [12] = assay: Insecticidal activity against Encarsia inaron treated at larval stages assessed as mean generation time at 31.25 ppm; assay type: functional, organism-based; conditions: Larval stage
Encarsia inaron [13] = assay: Insecticidal activity against Encarsia inaron treated at larval stages assessed as increase in net reproductive rate at 31.25 ppm; assay type: functional, organism-based; conditions: Larval stage
Encarsia inaron [14] = assay: Insecticidal activity against Encarsia inaron treated at larval stages assessed as intrinsic rate of increase at 31.25 ppm; assay type: functional, organism-based; conditions: Larval stage
Encarsia inaron [15] = assay: Insecticidal activity against Encarsia inaron treated at larval stages at 31.25 ppm assessed as insect total fecundity; assay type: functional, organism-based; conditions: Larval stage
Encarsia inaron [16] = assay: Insecticidal activity against Encarsia inaron treated at pupal stages at 2000 ppm assessed as insects eggs level per day (reference value: 2.37 egg/day); assay type: functional, Pupal stage
Encarsia inaron [17] = assay: Insecticidal activity against Encarsia inaron treated at adult stages assessed as finite rate of increase at 2000 ppm; assay type: functional, organism-based
Encarsia inaron [18] = assay: Insecticidal activity against Encarsia inaron treated at pupal stages assessed as net reproductive rate at 2000 ppm; assay type: functional, organism-based; conditions: Pupal stage
Encarsia inaron [19] = assay: Insecticidal activity against Encarsia inaron treated at adult stages assessed as mean generation time at 2000 ppm; assay type: functional, organism-based
Encarsia inaron [20] = assay: Insecticidal activity against Encarsia inaron treated at larval stages at 31.25 ppm assessed as insects eggs level per day (reference value: 2.98 egg/day); assay type: functional, Larval stage
Encarsia inaron [21] = assay: Insecticidal activity against Encarsia inaron adults reared on compound treated freshly cut cucumber leaves assessed as induction if insect mortality measured 48 hr post compound treatment; assay type: functional
Encarsia inaron [22] = assay: Insecticidal activity against Encarsia inaron infested cucumber plants assessed as adult parasitoid emergence from parasitised host nymphs treated at pupae stages at 400 g ai/L SC measured 10 days post compound treatment (reference value: 79.60 %); assay type: functional
Encarsia inaron [23] = assay: Insecticidal activity against Encarsia inaron treated at pupal stages at 2000 ppm assessed as insect total fecundity; assay type: functional, organism-based; conditions: Pupal stage
Encarsia inaron [24] = assay: Insecticidal activity against Encarsia inaron treated at adult stages at 2000 ppm assessed as insect total fecundity; assay type: functional, organism-based
Encarsia inaron [25] = assay: Insecticidal activity against Encarsia inaron treated at adult stages at 2000 ppm assessed as insect longevity (reference value: 8.95 days); assay type: functional
Encarsia inaron [26] = assay: Insecticidal activity against Encarsia inaron treated at pupal stages assessed as intrinsic rate of increase at 2000 ppm; assay type: functional, organism-based; conditions: Pupal stage
Encarsia inaron [27] = assay: Insecticidal activity against Encarsia inaron treated at adult stages assessed as doubling time at 2000 ppm; assay type: functional, organism-based
Encarsia inaron [28] = assay: Insecticidal activity against Encarsia inaron treated at larval stages at 31.25 ppm assessed as sex ratio (reference value: 0.72 no unit); assay type: functional, Larval stage
Encarsia inaron [29] = assay: Insecticidal activity against Encarsia inaron treated at pupal stages at 62.5 ppm assessed as insect longevity (reference value: 8.7 days); assay type: functional, Pupal stage
Encarsia inaron [30] = assay: Insecticidal activity against Encarsia inaron treated at adult stages assessed as finite rate of increase at 23.37 ppm; assay type: functional, organism-based
Encarsia inaron [31] = assay: Insecticidal activity against Encarsia inaron treated at pupal stages assessed as intrinsic rate of increase at 62.5 ppm; assay type: functional, organism-based; conditions: Pupal stage
Encarsia inaron [32] = assay: Insecticidal activity against Encarsia inaron treated at adult stages assessed as increase in net reproductive rate at 23.37 ppm; assay type: functional, organism-based
Encarsia inaron [33] = assay: Insecticidal activity against Encarsia inaron treated at larval stages assessed as finite rate of increase at 62.5 ppm; assay type: functional, organism-based; conditions: Larval stage
Encarsia inaron [34] = assay: Insecticidal activity against Encarsia inaron treated at adult stages at 23.37 ppm assessed as insect total fecundity; assay type: functional, organism-based
Encarsia inaron [35] = assay: Insecticidal activity against Encarsia inaron treated at pupal stages assessed as net reproductive rate at 62.5 ppm; assay type: functional, organism-based; conditions: Pupal stage
Encarsia inaron [36] = assay: Insecticidal activity against Encarsia inaron treated at adult stages assessed as mean generation time at 23.37 ppm; assay type: functional, organism-based
Encarsia inaron [37] = assay: Insecticidal activity against Encarsia inaron treated at pupal stages assessed as mean generation time at 62.5 ppm; assay type: functional, organism-based; conditions: Pupal stage
Encarsia inaron [38] = assay: Insecticidal activity against Encarsia inaron infested cucumber plants assessed as adult parasitoid emergence from parasitised host nymphs treated at larval stages at 350 g ai/L SC measured 10 days post compound treatment (reference value: 79.60 %); assay type: functional, Larval stage
Encarsia inaron [39] = assay: Insecticidal activity against Encarsia inaron treated at larval stages at 62.5 ppm assessed as insect total fecundity; assay type: functional, organism-based; conditions: Larval stage
Encarsia inaron [40] = assay: Insecticidal activity against Encarsia inaron treated at adult stages at 23.37 ppm assessed as insects eggs level per day (reference value: 2.33 egg/day); assay type: functional
Encarsia inaron [41] = assay: Insecticidal activity against Encarsia inaron treated at pupal stages at 62.5 ppm assessed as sex ratio (reference value: 0.68 no unit); assay type: functional, Pupal stage
Encarsia inaron [42] = assay: Insecticidal activity against Encarsia inaron treated at larval stages assessed as mean generation time at 62.5 ppm; assay type: functional, organism-based; conditions: Larval stage
Encarsia inaron [43] = assay: Insecticidal activity against Encarsia inaron infested cucumber plants assessed as adult parasitoid emergence from parasitised host nymphs treated at pupae stages at 350 g ai/L SC measured 10 days post compound treatment (reference value: 79.60 %); assay type: functional
Encarsia inaron [44] = assay: Insecticidal activity against Encarsia inaron treated at adult stages assessed as intrinsic rate of increase at 23.37 ppm; assay type: functional, organism-based
Encarsia inaron [45] = assay: Insecticidal activity against Encarsia inaron treated at larval stages at 62.5 ppm assessed as insect longevity (reference value: 5.60 days); assay type: functional, Larval stage
Encarsia inaron [46] = assay: Insecticidal activity against Encarsia inaron treated at adult stages at 23.37 ppm assessed as insect longevity (reference value: 8.95 days); assay type: functional
Encarsia inaron [47] = assay: Insecticidal activity against Encarsia inaron treated at pupal stages at 62.5 ppm assessed as insect total fecundity; assay type: functional, organism-based; conditions: Pupal stage
Encarsia inaron [48] = assay: Insecticidal activity against Encarsia inaron treated at pupal stages assessed as finite rate increase at 62.5 ppm; assay type: functional, organism-based; conditions: Pupal stage
Encarsia inaron [49] = assay: Insecticidal activity against Encarsia inaron treated at pupal stages at 62.5 ppm assessed as insects eggs level per day (reference value: 2.37 egg/day); assay type: functional, Pupal stage
Encarsia inaron [50] = assay: Insecticidal activity against Encarsia inaron treated at larval stages at 62.5 ppm assessed as sex ratio (reference value: 0.72 no unit); assay type: functional, Larval stage
Encarsia inaron [51] = assay: Insecticidal activity against Encarsia inaron treated at larval stages assessed as increase in net reproductive rate at 62.5 ppm; assay type: functional, organism-based; conditions: Larval stage
Encarsia inaron [52] = assay: Insecticidal activity against Encarsia inaron treated at adult stages assessed as doubling time at 23.37 ppm; assay type: functional, organism-based
Encarsia inaron [53] = assay: Insecticidal activity against Encarsia inaron treated at larval stages assessed as intrinsic rate of increase at 62.5 ppm; assay type: functional, organism-based; conditions: Larval stage
Encarsia inaron [54] = assay: Insecticidal activity against Encarsia inaron treated at adult stages at 23.37 ppm assessed as sex ratio (reference value: 0.72 no unit); assay type: functional
Encarsia inaron [55] = assay: Insecticidal activity against Encarsia inaron treated at larval stages at 62.5 ppm assessed as insects eggs level per day (reference value: 2.98 egg/day); assay type: functional, Larval stage

CC(C)N1C(=O)N(c2ccccc2)CS/C1=N\C(C)(C)C [BUPROFEZIN]
Time (Encarsia inaron [1]): 7.05 days
Activity (Encarsia inaron [2]): inactive
Activity (Encarsia inaron [3]): inactive
Time (Encarsia inaron [4]): 8.5 days
Activity (Encarsia inaron [5]): 4.58 day⁻¹
Activity (Encarsia inaron [6]): inactive
Ratio (Encarsia inaron [7]): 0.44
Activity (Encarsia inaron [8]): Active
Activity (Encarsia inaron [9]): inactive
Activity (Encarsia inaron [10]): 2.6%
Ratio (Encarsia inaron [11]): 0.44
Activity (Encarsia inaron [12]): inactive
Activity (Encarsia inaron [13]): inactive
Activity (Encarsia inaron [14]): inactive
Activity (Encarsia inaron [15]): inactive
Activity (Encarsia inaron [16]): 1.24 day⁻¹
Activity (Encarsia inaron [17]): inactive
Activity (Encarsia inaron [18]): Active
Activity (Encarsia inaron [19]): inactive
Activity (Encarsia inaron [20]): 3.55 day⁻¹
LC50 (Encarsia inaron [21]): inactive
Activity (Encarsia inaron [22]): 63.4%
Activity (Encarsia inaron [23]): inactive
Activity (Encarsia inaron [24]): inactive
Time (Encarsia inaron [25]): 8.9 days
Activity (Encarsia inaron [26]): inactive
Activity (Encarsia inaron [27]): inactive
Ratio (Encarsia inaron [28]): 0.49

O=[N+]([O-])/N=C1\NCCN1Cc1ccc(Cl)nc1 [IMIDACLOPRID]
Time (Encarsia inaron [29]): 6.7 days
Activity (Encarsia inaron [30]): inactive
Activity (Encarsia inaron [31]): inactive
Activity (Encarsia inaron [32]): inactive
Activity (Encarsia inaron [33]): Active
Activity (Encarsia inaron [34]): Active
Activity (Encarsia inaron [35]): Active
Activity (Encarsia inaron [36]): inactive
Activity (Encarsia inaron [37]): Active
Activity (Encarsia inaron [38]): 7%
LC10 (Encarsia inaron [21]): 3.3 ppm
LC90 (Encarsia inaron [21]): 13407 ppm
LC50 (Encarsia inaron [21]; Encarsia inaron, 48 h): 209 µg/mL (≈ 817 µM)
Activity (Encarsia inaron [39]): Active
Activity (Encarsia inaron [40]): 4.75 day⁻¹
Ratio (Encarsia inaron [41]): 0.59
Activity (Encarsia inaron [42]): Active
Activity (Encarsia inaron [43]): 15%
Activity (Encarsia inaron [44]): inactive
Time (Encarsia inaron [45]): 13.2 days
Time (Encarsia inaron [46]): 6.85 days
Activity (Encarsia inaron [47]): Active
Activity (Encarsia inaron [48]): inactive
Activity (Encarsia inaron [49]): 2.77 day⁻¹
Ratio (Encarsia inaron [50]): 0.54
Activity (Encarsia inaron [51]): Active
Activity (Encarsia inaron [52]): inactive
Activity (Encarsia inaron [53]): Active
Ratio (Encarsia inaron [54]): 0.52
Activity (Encarsia inaron [55]): 5.44 day⁻¹
